Results on 18 compounds are retold here after US12378206B2, “Heteroaryl butanoic acid derivatives” (NOVARTIS AG, priority 2013, dated 2025).

Assay [1] deals with LTB4 biosynthesis in human whole blood. The assay can be described thus: Human whole blood assay (hWB): inhibition of LTB4 biosynthesis after A23187 stimulation, ELISA. In kind it is cell-based. How it is done:
Compounds are tested in a human whole blood assay (hWB) to test their ability to inhibit LTB4 biosynthesis in a human cellular system. To this end, fresh blood is collected in heparinized vacutainers by venipuncture from volunteers. Blood is diluted 1:3 with RPMI (Roswell Park Memorial Institute) medium and aliquots of 200 μL are transferred to 96-well round bottom cell culture plates. For compound testing, compounds are delivered as 10 mM stock solutions in 90% DMSO in matrix tubes. […] 4 μL of compound dilution or vehicle is added to 200 μL of blood and incubated for 15 min at 37° C. in a humidified incubator. Then blood is stimulated with 10 μg/ml calcium ionophore A23187 (Sigma) or equal volume DMSO (control) and incubated for an additional 15 min at 37° C. in a humidified incubator. Incubation is terminated by centrifugation at 300 g for 10 min at 22° C. Plasma supernatant is taken and transferred to a 96 well plate for eicosanoid determination by ELISA (Assay designs) according to the manufacturer's protocol after 1:20 dilution in assay buffer. The data is analyzed in GraphPad Prism (GraphPad software Inc.) using non-linear regression to determine IC50 values of LTA4H inhibitors.

For another assay, the target named is T1, human LTA4H (Homo sapiens, UniProt P09960).
T1 sequence (P09960 1-611): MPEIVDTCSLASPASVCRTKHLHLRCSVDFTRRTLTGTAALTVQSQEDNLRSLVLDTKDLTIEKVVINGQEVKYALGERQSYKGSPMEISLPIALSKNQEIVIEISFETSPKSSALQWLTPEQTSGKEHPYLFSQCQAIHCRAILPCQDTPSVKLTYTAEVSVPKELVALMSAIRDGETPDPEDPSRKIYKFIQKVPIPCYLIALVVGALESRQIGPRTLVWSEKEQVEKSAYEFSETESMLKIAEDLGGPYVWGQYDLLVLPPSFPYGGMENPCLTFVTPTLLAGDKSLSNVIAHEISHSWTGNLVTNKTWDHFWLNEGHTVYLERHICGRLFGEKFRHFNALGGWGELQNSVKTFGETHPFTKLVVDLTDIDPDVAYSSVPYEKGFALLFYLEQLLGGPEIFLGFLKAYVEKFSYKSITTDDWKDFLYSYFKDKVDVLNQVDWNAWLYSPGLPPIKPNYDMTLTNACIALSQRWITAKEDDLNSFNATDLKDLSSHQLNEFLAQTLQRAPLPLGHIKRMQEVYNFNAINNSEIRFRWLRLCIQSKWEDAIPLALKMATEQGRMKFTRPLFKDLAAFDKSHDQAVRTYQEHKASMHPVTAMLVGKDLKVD
As to the kind of experiment: Human LTA4H enzyme assay (Arg-AMC surrogate substrate, fluorescence). In kind it is biochemical. As to conditions: read-out: ArgAMC IC50. How it is done:
Leukotriene A4 hydrolase (LTA4H) catalyzes the vinylogous hydrolysis of the epoxide, leukotriene A4 (LTA4) into the pro-inflammatory mediator LTB4.
For compound testing, compounds are delivered as 10 mM stock solutions in 90% DMSO (10% water) in matrix tubes. […] The enzyme compound mixture is incubated at room temperature for 15 minutes prior to the addition of 50 μL substrate solution. A final substrate concentration of 600 μM, which is around the KM value of Arg-AMC, at a final enzyme concentration of 9 nM is chosen. Upon addition of the substrate, the plate is immediately placed in a fluorescence reader and the fluorescence is measured every 10 minutes for 60 minutes using the filter setting λexcitation=380 nm and λemission=460 nm. […] Raw data is converted to rate (moles per minute) using the AMC calibration curve calculated from the AMC standards. The data is analyzed in GraphPad Prism (GraphPad software Inc.) using non-linear regression to determine IC50 values of LTA4H inhibitors.

Another assay has as its system LTB4 release. The assay can be described thus: Murine PD assay: ex vivo A23187-stimulated LTB4 release in blood after p.o. dosing. The arrangement: species or system female C57BL/6 mice. As to conditions: Mus musculus, po, read-out: PD effect [%] inhibition of LTB4 release. The protocol:
LTA4H inhibitor compounds or vehicle control (30% PEG200 (70%), 5% Glucose) is applied per os (p.o.) in a dose of 0.3 mg/kg to female C57BL/6 mice (Charles River France). Three hours after application of compound, mice are terminally bled and blood is collected in heparinized tubes. Collected blood is diluted 1:3 in RPMI medium, added in 96-well round bottom cell culture plates and incubated with 10 μg/ml calcium ionophore A23187 (Sigma) or equal volume DMSO (control) for 15 min at 37° C. in a humidified incubator. Incubation is terminated by centrifugation at 300 g for 10 min at 22° C. Plasma supernatant is taken, diluted 1:10 in assay buffer and transferred to a 96 well plate for eicosanoid determination by ELISA (Assay designs) according to the manufacturer's protocol.

Where [2] appears, read: human whole blood diluted 1:3, 10 μg/ml calcium ionophore A23187, LTB4 by ELISA, read-out: hWB IC50.
Setting [3] is: 0.3 mg/kg p.o., female C57BL/6 mice, blood taken 3 hours after application, ex vivo A23187 stimulation, versus vehicle control.
Setting [4] is: Homo sapiens, read-out: hWB IC50 (nM).

Molecules are shown by their SMILES. Like-named read-outs stand apart in the source and are kept apart here.

For `N[C@H](CC(=O)O)Cn1nnc(-c2cccc(Oc3ccc(Cl)cc3)c2)n1` [Example 5, (R)-3-amino-4-(5-(3-(4-chlorophenoxy)phenyl)-2H-tetrazol-2-yl)butanoic acid], the IC50 was determined as 396 nM in assay [1] (setting [2]) and 0.003 µM on human LTA4H.
Consider `N[C@H](CC(=O)O)Cn1nnc(-c2ccc(Oc3ccc(F)c(Cl)c3)cc2)n1` [Example 8, (R)-3-amino-4-(5-(4-(3-chloro-4-fluorophenoxy)phenyl)-2H-tetrazol-2-yl)butanoic acid], for which the IC50 in assay [1] (setting [2]) worked out at 282 nM; on human LTA4H it was 0.003 µM.
The corresponding values for `Cc1ccc(Oc2ccc(-c3nnn(C[C@H](N)CC(=O)O)n3)cc2)cc1` [Example 9, (R)-3-amino-4-(5-(4-(p-tolyloxy)phenyl)-2H-tetrazol-2-yl)butanoic acid] are 402 nM and ≤ 0.002 µM.
The corresponding values for `N[C@@H](CC(=O)O)Cn1nnc(-c2cccc(Oc3ccccc3)c2)n1` [Example 10, (S)-3-amino-4-(5-(3-phenoxyphenyl)-2H-tetrazol-2-yl)butanoic acid] are 214 nM and 0.004 µM.
With `N[C@H](CC(=O)O)Cn1nnc(-c2cccc(OCCc3ccccc3)c2)n1` [Example 13, (R)-3-amino-4-(5-(3-phenethoxyphenyl)-2H-tetrazol-2-yl)butanoic acid], the IC50 in assay [1] (setting [2]) is 86 nM; at human LTA4H it was ≤ 0.002 µM. Besides, the inhibition at 0.3 mg/kg with LTB4 release (setting [3]) came out at 55%.
`N[C@H](CC(=O)O)Cn1nnc(-c2ccc(OCc3ccccc3)cc2)n1` [Example 15, (R)-3-amino-4-(5-(4-(benzyloxy)phenyl)-2H-tetrazol-2-yl)butanoic acid]: the IC50 was 81 nM in assay [1] (setting [4]) and ≤ 0.002 µM on human LTA4H. Also, the inhibition at 0.3 mg/kg in the assay on LTB4 release (3 h) was found to be 49%.
For `N[C@H](CC(=O)O)Cn1nnc(-c2cccc(OCc3ccccc3)c2)n1` [Example 16, (R)-3-amino-4-(5-(3-(benzyloxy)phenyl)-2H-tetrazol-2-yl)butanoic acid] the same measures were 165 nM, 0.003 µM and 9%.
Consider `CCCCOc1ccc(-c2nnn(C[C@H](N)CC(=O)O)n2)cc1` [Example 17, (R)-3-amino-4-(5-(4-butoxyphenyl)-2H-tetrazol-2-yl)butanoic acid], for which the figures for the IC50 (in assay [1] (setting [4]); at human LTA4H) were 183 nM and 0.004 µM, respectively. The inhibition at 0.3 mg/kg with LTB4 release (3 h) came out at 47%.
`N[C@H](CC(=O)O)Cn1nnc(-c2cccc(Oc3ccc(C(F)(F)F)cn3)c2)n1` [Example 19, (R)-3-amino-4-(5-(3-((5-(trifluoromethyl)pyridin-2-yl)oxy)phenyl)-2H-tetrazol-2-yl)butanoic acid]: the values for the IC50 (in assay [1] (setting [4]); at human LTA4H) were 273 nM and 0.003 µM, respectively.
For the compound `N[C@H](CC(=O)O)Cn1nnc(-c2ccc(Oc3ccc(C(F)(F)F)cn3)cc2)n1` [Example 20, (R)-3-amino-4-(5-(4-((5-(trifluoromethyl)pyridin-2-yl)oxy)phenyl)-2H-tetrazol-2-yl)butanoic acid], the IC50 turned out to be 270 nM in assay [1] (setting [2]) and 0.005 µM at human LTA4H.
For `N[C@H](CC(=O)O)Cn1nnc(-c2cccc(Oc3nc4ccccc4s3)c2)n1` [Example 21, (R)-3-amino-4-(5-(3-(benzo[d]thiazol-2-yloxy)phenyl)-2H-tetrazol-2-yl)butanoic acid] the same measures were 209 nM and 0.005 µM.
The corresponding values for `N[C@H](CC(=O)O)Cn1nnc(-c2cccc(Oc3cc(F)cc(F)c3)c2)n1` [Example 22, (R)-3-amino-4-(5-(3-(3,5-difluorophenoxy)phenyl)-2H-tetrazol-2-yl)butanoic acid] are 294 nM and 0.008 µM.
Take `Cc1ccc(Oc2ccc(-c3nnn(C[C@@H](N)CC(=O)O)n3)cc2)cc1` [Example 23, (S)-3-amino-4-(5-(4-(p-tolyloxy)phenyl)-2H-tetrazol-2-yl)butanoic acid]: the IC50 was 173 nM in assay [1] (setting [2]) and ≤ 0.002 µM at human LTA4H. For the same compound, the inhibition at 0.3 mg/kg in the assay on LTB4 release (setting [3]) came out at 44%.
Turning to `N[C@@H](CC(=O)O)Cc1nnc(-c2ccc(Oc3ccc(F)cc3)cc2)o1` [Example 24, (R)-3-amino-4-(5-(4-(4-fluorophenoxy)phenyl)-1,3,4-oxadiazol-2-yl)butanoic acid], the values for the IC50 (in assay [1] (setting [2]); at human LTA4H) were 282 nM and 0.003 µM, respectively.
For `N[C@@H](CC(=O)O)Cc1nnc(-c2ccc(Oc3ccc(Cl)cc3)cc2)o1` [Example 25, (R)-3-amino-4-(5-(4-(4-chlorophenoxy)phenyl)-1,3,4-oxadiazol-2-yl)butanoic acid] the same measures were 382 nM and 0.003 µM.
For `N[C@@H](CC(=O)O)Cc1nc(-c2ccc(Oc3ccc(Cl)cc3)cc2)no1` [Example 26, (R)-3-amino-4-(3-(4-(4-chlorophenoxy)phenyl)-1,2,4-oxadiazol-5-yl)butanoic acid] the same measures were 126 nM and 0.003 µM.
The corresponding values for `NC(=O)C[C@H](N)Cc1nc(-c2ccc(Oc3ccc(Cl)cc3)cc2)no1` [Example 27, (R)-3-amino-4-(3-(4-(4-chlorophenoxy)phenyl)-1,2,4-oxadiazol-5-yl)butanamide] are 218 nM and 0.01 µM.
`N[C@@H](CC(=O)O)Cn1cc(-c2ccc(Oc3ccc(Cl)cc3)cc2)cn1` [Example 28, (S)-3-amino-4-(4-(4-(4-chlorophenoxy)phenyl)-1H-pyrazol-1-yl)butanoic acid]: the IC50 was 728 nM in assay [1] (setting [2]) and 0.003 µM at human LTA4H.
